Consider seven compounds from patent US8147817B2, “IL-33 in the treatment and diagnosis of diseases and disorders” (The Brigham and Women's Hospital, Inc., priority 2006, dated 2012).

Entries after “also recorded” stand apart in the source; their conditions may differ.

Assay [1] deals with rat neonatal cardiomyocytes. Put plainly: [3H]-leucine incorporation assay (hypertrophy). The format is cell-based. The conditions noted are these: for hypertrophic response under angiotensin-II or phenylephrine: agent added without IL-33; for antihypertrophic effect of IL-33: under angiotensin-II or phenylephrine plus IL-33, agent added. The procedure:
Leucine incorporation in rat neonatal cardiomyocytes was detected as previously described (7). Cells were pre-incubated with 1.0 μCi/mL [^3H]leucine for 24 hours. The medium was aspirated, and the cells were washed twice with ice-cold PBS and once with 10% trichloroacetic acid (TCA; Sigma) and fixed for 45 minutes at 4° C. with 10% TCA. After washing twice with cold 95% ethanol, radioactivity incorporated into the TCA-precipitable material was determined by liquid scintillation counting after solubilization in 0.15N NaOH.
Leucine incorporation in rat neonatal cardiomyocytes was detected as previously described (46). Cells were treated with 1.0 μCi/ml [^3H]-leucine for 24 hours, washed, fixed with 10% trichloroacetate (Sigma) for 45 minutes at 4° C., and then radioactivity was determined by liquid scintillation counting. An anti-mouse ST2 antibody (R&D) was used as a functional neutralizing antibody (12). A normal rat IgG2a (Sigma) and mouse IL-1Rrp2 (R&D) were used as controls for anti-mouse ST2 antibody (R&D) and mouse soluble ST2 (R&D), respectively.

Assay [2] deals with NF-κB. Put plainly: NF-κB luciferase reporter assay in neonatal rat cardiomyocytes. It counts as cell-based. As to conditions: n=3. The procedure: Neonatal rat cardiomyocytes were transfected using Lipofectamine Plus (Invitrogen) with a luciferase reporter plasmid for NF-κB and with β-galactosidase, as described previously (47). After 48 hours of transfection, cells were then stimulated for an additional 24 hours, lysed and treated with Dual-Light assay system (Applied Biosystems, Foster City, Calif.), and analyzed using a luminometer (PerkinElmer Waltham, Calif.).

For the next assay, the system named is IL-33. Description: IL-33 gene expression by quantitative PCR in cardiomyocytes and cardiac fibroblasts. The format is cell-based, rat. The conditions noted are these: PMA 0.2 μM, angiotensin-II 0.1 μM, TNF-α 10 ng/ml, IL-1β 10 ng/ml. How it is done:
mRNA expression was analyzed by quantitative PCR using the QuantiTect SYBR Green reverse transcription-PCR kit (QIAGEN, Valencia, Calif.) and the Light Cycler System (Roche Applied Science, Indianapolis, Ind.) as previously described (5). Total RNA was extracted from cells with TRI reagent, and 0.2 μg of RNA was analyzed. Sequences of PCR primers were as follows (5′ to 3′): […] (SEQ ID NO: 1) and […] (SEQ ID NO: 2) (IL-33); […] (SEQ ID NO: 3) and […] (SEQ ID NO: 4) (ANP); […] (SEQ ID NO: 5) and […] (SEQ ID NO: 6) (BNP); […] (SEQ ID NO: 7) and […] (SEQ ID NO: 8) (procollagen I); […] (SEQ ID NO: 9) and […] (SEQ ID NO: 10) (collagen III).
mRNA expression was analyzed by quantitative PCR using the QuantiTect SYBR Green reverse transcription-PCR kit (QIAGEN) and the Light Cycler System (Roche Applied Science) as previously described (45). Total RNA was extracted from cells with TRI reagent, and 0.2 μg of RNA was analyzed. Sequences of PCR primers were as follows (5′ to 3′): […] (SEQ ID NO: 1) and […] (SEQ ID NO: 2) (rat IL-33); […] (SEQ ID NO: 3) and […] (SEQ ID NO: 4) (rat ANP); […] (SEQ ID NO: 5) and […] (SEQ ID NO: 6) (rat BNP).

Assay [3] relates to rat neonatal cardiac fibroblasts. Put plainly: sST2 and IL-33 secretion and free IL-33 in cardiac fibroblast conditioned media (Western, immunoprecipitation). The format is cell-based. The procedure:
Immunoprecipitation was performed as described previously (45) with some modifications. Briefly, after wash with PBS, protein G-agarose beads were presaturated with far excessive amount of sST2-Fc protein (R&D) at 4° C. overnight, washed 3 times with PBS. 1 ml of conditioned media in the presence and absence of separated preincubation with 20 μg of the sST2-Fc protein was then incubated with presaturated beads for 2 hours at room temperature.
(§1) Western analyses were performed as described previously (45). Membranes were incubated with primary antibodies overnight (anti-p44/42MAPK diluted 1:500; phospho-p44/42MAPK (Thr202/Tyr204) 1:1000; phospho-JNK (Thr183/Tyr185) 1:500; p38MAPK 1:500; phospho-p38MAPK (Thr180/Tyr182) 1:500; phospho-Akt (Ser473) 1:1000 and phospho-IκBα 1:1000, all from Cell Signaling, anti-mouse ST2L, from R&D 1:1000 and anti-IL-33 as described above, 1:500) at 4° C., detected with horseradish peroxidase-conjugated antibodies and enhanced chemiluminescence.

The test system of another assay is cardiomyocytes. Description: Oxidative stress assay (DCFDA, ROS generation). It counts as cell-based, rat. As to conditions: DCFDA. The procedure:
An assay to detect oxidative stress was performed as reported previously (48). Cardiomyocytes were incubated with 2,7-dichlorodihydrofluorecein diacetate (DCFDA) for 45 min, washed in phosphate-buffered saline, and fluorescence intensity was measured using a fluorometer (PerkinElmer Life Science) at 595 nm.

Assay [4] has as its system NF-κB. Description: NF-κB nuclear binding activity by EMSA in cardiac fibroblasts. The format is cell-based, rat. The conditions noted are these: angiotensin-II 1 μM, phenylephrine 50 μM, IL-33 10 ng/ml. The procedure: (§2) Electromobility shift assays were performed as described previously (8). Cells were lysed for 10 minutes on ice in a solution containing 10 mM HEPES (pH 7.6), 15 mM KCl, 2 mM MgCl2, 0.1 mM ethylenediamine tetraacetic acid (EDTA), 1 mM dithiothreitol (DTT), 0.5 mM phenylmethylsulphonylfluoride (PMSF), 10 μg/mL leupeptin and 0.2% Nonident P-40. Dishes were gently scraped, and nuclei were collected by centrifugation at 800 g for 30 seconds and then suspended in a solution of 50 mM HEPES, 400 mM KCl, 0.1 mM EDTA, 10% glycerol, 1 mM DTT, 0.5 mM PMSF and 10 μg/mL leupeptin. The mixture was incubated on ice for 30 minutes, and the supernatant was collected after centrifugation for 15 minutes at 400 g. Binding reactions were performed with 5 or 10 μg of nuclear protein in 10 mM Tris, 1 mM DTT, 1 mM EDTA, 5% glycerol, 0.1% Triton X-100, 1 mg poly(dIdC), 5 μg bovine serum albumin (BSA) and approximately 10,000 cpm of −32P-labeled oligonucleotide. The binding reactions for AP-1 activity also contained 5 mM MgCl2. Control reaction mixtures contained a 100-fold excess of unlabeled oligonucleotide and were incubated with nuclear extracts of IL-1β-treated cells. DNA complexes were separated on a 4% nondenaturing polyacrylamide gel in Tris-HCl (6.7 mM), EDTA (1 mM) and ammonium acetate (3.3 mM). The oligonucleotides contained the NF-B binding site (sequence: 5′-AGTTGAGGGGACTTTCCCAGGC-3′ (SEQ ID NO: 15)) and were labeled by standard procedures.
EMSAs were performed as described previously (47). Cells were lysed for 10 minutes on ice in 10 mM HEPES (pH 7.6), 15 mM KCl, 2 mM MgCl2, 0.1 mM EDTA, 1 mM DTT, 0.5 mM PMSF, 10 μg/mL leupeptin, and 0.2% Nonident P-40. Dishes were gently scraped, and nuclei were collected by centrifugation at 800 g for 30 seconds and then suspended in a solution of 50 mM HEPES, 400 mM KCl, 0.1 mM EDTA, 10% glycerol, 1 mM DTT, 0.5 mM PMSF, and 10 μg/mL leupeptin. The mixture was incubated on ice for 30 minutes, and the supernatant was collected after centrifugation for 15 minutes at 400 g. […]

Assay [5] deals with NF-κB. Description: NF-κB nuclear binding activity by EMSA in cardiomyocytes. It counts as cell-based, rat. The conditions noted are these: cardiomyocytes; angiotensin-II 1 μM, phenylephrine 50 μM, IL-33 10 ng/ml. The procedure:
as §2
EMSAs were performed as described previously (47). Cells were lysed for 10 minutes on ice in 10 mM HEPES (pH 7.6), 15 mM KCl, 2 mM MgCl2, 0.1 mM EDTA, 1 mM DTT, 0.5 mM PMSF, 10 μg/mL leupeptin, and 0.2% Nonident P-40. Dishes were gently scraped, and nuclei were collected by centrifugation at 800 g for 30 seconds and then suspended in a solution of 50 mM HEPES, 400 mM KCl, 0.1 mM EDTA, 10% glycerol, 1 mM DTT, 0.5 mM PMSF, and 10 μg/mL leupeptin. The mixture was incubated on ice for 30 minutes, and the supernatant was collected after centrifugation for 15 minutes at 400 g. Binding reactions were performed with 5 or 10 μg of nuclear protein in 10 mM Tris, 1 mM DTT, 1 mM EDTA, 5% glycerol, 0.1% Triton X-100, 1 mg poly(dIdC), […] BSA, and 10,000 cpm of [^32P]-labeled oligonucleotide. The specific NF-κB consensus oligonucleotides were 5′-[…]-3′ (SEQ ID NO: 15) and 5′-[…]-3′ (SEQ ID NO: 18) (Promega). Positive and negative control mixtures as well as specific competition mixtures were made as recommended by the manufacturer's instructions, using binding buffer with positive samples, labeled NF-κB oligonucleotides and 10-fold excess of cold NF-κB consensus oligonucleotides for specific competition. DNA complexes were separated on a 6% nondenaturing polyacrylamide gel in Tris-HCl (6.7 mM), EDTA (1 mM), and ammonium acetate (3.3 mM).

Assay [6] deals with IκBα. Put plainly: IκBα phosphorylation by Western analysis in cardiomyocytes. It counts as cell-based, rat. As to conditions: cardiomyocytes. How it is done: as §1
Assay [7] deals with IκBα. Description: IκBα phosphorylation by Western analysis in cardiac fibroblasts. The format is cell-based, rat. How it is done:
as §1

Setting [8] is: increasing doses of PMA, 24 hrs.

Regarding “sST2: soluble form of ST2; mouse soluble ST2 (R&D); acts as decoy receptor for IL-33”, the “hypertrophic response under angiotensin-II or phenylephrine” value in assay [1] is given as “further augment the hypertrophic response; also recorded: trend toward increased amino acid uptake”; in assay [1] (listed as soluble ST2) it was “further enhanced hypertrophy”. In addition, in assay [1] (agent alone, vs baseline or control protein), the “leucine uptake at baseline” value was “not affected”. The figures for the “antihypertrophic effect of IL-33” value in [1], in [1] (listed as Soluble ST2) and in assay [1] (listed as soluble ST2) were “reversed the antihypertrophic effect of IL-33 in a dose-dependent manner”, “dose-dependently reversed the antihypertrophic effect of IL-33” and “abolishes it; also recorded: the effects of IL-33 are abolished”, respectively. Moreover, in the assay on NF-κB [2] (angiotensin-II with IL-33 and sST2 co-treatment), the “increase of NF-κB promoter activity” value is given as 42+/−5%.
As for TNF-α, in the assay on IL-33, the “induction of IL-33 gene expression” value is listed as “neither TNF-α (10 ng/ml) nor IL-1β (10 ng/ml) induced IL-33 gene expression”.
For the compound “sST2-Fc: sST2-Fc protein (R&D), recombinant ST2-Fc chimera protein”, the “free IL-33 in conditioned media after preincubation” value in assay [3] (20 μg of sST2-Fc protein) is on record as “removed free IL-33”.
For the compound `CNC[C@H](O)c1cccc(O)c1` [phenylephrine, reference compound], in the assay on cardiomyocytes, the “ROS generation by agonist alone” value is on record as “significantly induced ROS generation”. Besides, the “NF-κB activation by agent alone” value with NF-κB [4] and in the assay with NF-κB [5] was “independently activated NF-κB in both cell types” throughout.
With “angiotensin-II (DRVYIHPF; Angiotensin-2; UniProt P01019 25-32, looked up) [hypertrophic stimulus, angiotensin receptor agonist, reference compound]”, the “ROS generation by agonist alone” value in the assay with cardiomyocytes is “significantly induced ROS generation”. The “NF-κB activation by agent alone” value in the assay with NF-κB [4] and in the assay with NF-κB [5] was “independently activated NF-κB in both cell types” each time. Further, the “IκBα phosphorylation by agent alone” value in the assay with IκBα [6] and with IκBα [7] was “induced IκBα phosphorylation in both cell types” each time. The “induction of IL-33 gene expression” value in the assay with IL-33 is reported as “induced the expression of IL-33 in both cell types”. Moreover, the “increase of NF-κB promoter activity” value with NF-κB [2] (angiotensin-II alone) is given as 66+/−26%.
Turning to `CCCCCCCCCCCCCC(=O)O[C@@H]1[C@@H](C)[C@@]2(O)[C@@H](C=C(CO)C[C@]3(O)C(=O)C(C)=C[C@@H]23)[C@@H]2C(C)(C)[C@]12OC(C)=O` [PMA, phorbol 12-myristate 13-acetate], in assay [3] (setting [8]), the “free (unbound) IL-33” value was “unbound IL-33 diminished; also recorded: dose-dependent decrease in free IL-33 level; also recorded: dose-dependently decreased free IL-33”; the “secretion of sST2 and total IL-33” value is “both sST2 and total IL-33 were induced; also recorded: dose-dependent robust induction in both sST2 and IL-33 protein expression; also recorded: dose-dependently increased secretion of both IL-33 (top) and sST2”. Besides, the “induction of IL-33 gene expression” value in the assay on IL-33 is “induced the expression of IL-33 in both cell types; also recorded: powerful inducer”.
Consider IL-1β: cytokine stimulus, 10 ng/ml, for which the “induction of IL-33 gene expression” value with IL-33 is “neither TNF-α (10 ng/ml) nor IL-1β (10 ng/ml) induced IL-33 gene expression”.
